Read-outs that look alike come from different tables or passages of the source.
Legend:
Format in all cases: cell-based
[1] = system: T. b. brucei 427 or T. b. rhodesiense IL1852; experiment: trypanosome cytotoxicity assay in vitro; conditions: Trypanosoma brucei, by 24 hours, BSF trypanosomes, read-out: effective concentration of drug to kill 50% (EC50) of the parasites
Experimental: (§1) FIG. 1 illustrates the effect of MACs of the present invention on human brain microvascular endothelial cell (BMEC) monolayers interaction with trypanosomes. (A) Human BMEC pretreated with 20 μM DP-b99 impeded parasite transmigration across this barrier (t-5 hours, n=3). […] The data are represented as average TEER or migration±S.E. (n=4; p<0.05). (B) BSF trypanosomes were incubated with DP-b99 or DP460. The average percent (n=4) of parasites killed after 24 hours is plotted against drug concentration.
(§2) African Trypanosomes: The MAC compound of the present invention, DP-b99, as a chelator of Ca^2+ and Zn^2+ was tested to determine whether it would tighten the BBB to trypanosome traversal based on the concepts described above. In pilot parasite/BBB transmigration experiments, bloodstream form Trypanosoma brucei rhodesiense (Tbr) IL1852 were incubated in Transwell inserts containing human brain microvascular endothelial cell (BMEC) monolayers pretreated for 60 minutes with DP-b99, then washed free of drug. In a parallel experiment, human BMEC grown on gold-coated electrode ECIS arrays, were similarly treated with the MAC compound. When compared to the untreated control group, T. b. rhodesiense transmigration across a human BMEC barrier was impeded 60% after 5 hours incubation (FIG. 1A). […]

P. falciparum = experiment: antimalarial cytotoxicity assay ([3H]hypoxanthine), malaria-infected RBC; conditions: Plasmodium falciparum
Experimental: FIG. 2 is set of graphs showing the percentage of P. falciparum killed by MACs of the present invention as a function of drug concentration. Malaria-infected RBC were incubated with DP-b99 (A and B).
FIG. 3 is a graph showing the percentage of P. falciparum killed by MACs of the present invention as a function of drug concentration.
Malaria. Because of the importance of calcium signaling in mammalian cells and recent findings that interference with host cell signaling pathways to subvert the host intracellular milieu may be an important mechanism for the malaria parasite's survival, it was thought that MACs might be toxic to malarial parasite within host cells (i.e. RBCs, hepatocytes). It was investigated whether MAC compounds of the present invention would be able to kill intracellular malaria parasites. An established antimalarial cytotoxicity assay developed in Dr. Theresa Shapiro's laboratory (JHU) (Tetrahedron, 1997; 53(1):37-50) was used with the following modifications: (1) Parasitemia was maintained at 0.1% to 5% by thrice weekly change of medium and replenishment of human erythrocytes; (2) [^3H]hypoxanthine (10-30 Ci/mmol, 1.0 mCi/mL was used in aqueous solution, (Perkin-Elmer NET177001MC), diluted to 25 μCi/mL with medium; and as for the trypanosome experiments (3) the cytotoxicity assays for two MAC compounds of the present invention, DP-b99 and DP-460 (DPharm, Ltd., Rehovot Ill.), included 10 concentrations based on stock solutions (50.0 mg/mL) of each compound that were prepared in sterile HPLC-grade water.

[2] = system: bloodstream form Trypanosoma brucei rhodesiense (Tbr) IL1852 transmigration across human BMEC barrier; experiment: parasite/BBB transmigration across human BMEC monolayers in Transwell inserts; conditions: BMEC pretreated 60 minutes with 20 μM DP-b99, washed free of drug; after 5 hours incubation
Experimental: as §1, §2

[3] = system: human brain microvascular endothelial cell (BMEC) monolayers; experiment: ECIS transendothelial electrical resistance (TEER) of human BMEC during infection; conditions: BMEC pretreated with 20 μM DP-b99
Experimental: as §1, §2

[4] = pilot experiments, read-out: concentration range found to kill P. falciparum

| SMILES | EC50 [1] [µM] | EC50 (P. falciparum; R^2=0.995 (FIG. 3), read-out: EC50, P. falciparum killed) [µM] | EC50 (P. falciparum; [4]) [µM] | T. b. rhodesiense transmigration across a human BMEC barrier impeded, compared to untreated control [2] [%] | barrier tightness of human BMEC during the infection (ECIS TEER) [3] |
| --- | --- | --- | --- | --- | --- |
| CCCCCCCCCCCCOCCOC(=O)CN(CC(=O)O)c1ccccc1OCCOc1ccccc1N(CC(=O)O)CC(=O)OCCOCCCCCCCCCCCC [DP-460] | ~39 | 28 | 21 to 28 | – | – |
| CCCCCCCCOCCOC(=O)CN(CC(=O)O)c1ccccc1OCCOc1ccccc1N(CC(=O)O)CC(=O)OCCOCCCCCCCC [DP-b99] | ~87 | – | 21 to 28 | 60 | maintained a tighter barrier |

Source: patent US9415032B2, “Membrane activated chelators and use in the prevention and treatment of parasitic infection” (THE JOHNS HOPKINS UNIVERSITY, priority 2011, dated 2016)
